Test results from US11492345B2, “Compounds and their methods of use” (Praxis Precision Medicines, Inc., priority 2017, dated 2022).

Biological target: T1, human Nav1.6 (hNav1.6) (Homo sapiens, UniProt Q9UQD0)
T1 construct: expressed in transfected cells; host or cells: HEK-293 (G418 selection)
Assay: Modulation of late sodium current (INaL), PatchXpress electrophysiology
Format: cell-based
Details: HEK293; 1 μM compound; HEK-293 cells expressing recombinant human Nav channel; late current evoked by 300 nM ATX-II; steady-state inhibition; read-out: INaL v1.6 (1 μM, % Inhibition)
Description: Functional characterization of exemplary compounds to modulate INaL expressed by the Nav1.6 voltage-gated sodium channel was accomplished using the PatchXpress™ high throughput electrophysiology platform (Molecular Devices, Sunnyvale, Calif.). HEK-293 cells expressing recombinant, human Nav1.6 (hNav1.6) were grown in DMEM/high-glucose Dulbecco's modified, 10% FBS, 2 mM sodium pyruvate, 10 mM HEPES and 400 μg/mL G418. Cells were grown to 50%-80% confluency prior to harvesting. Trypsinized cells were washed, allowed to recover for 1 hour and then resuspended in extracellular recording solution at a concentration of 1×10^6 cells/ml. The onboard liquid handling facility of the PatchXpress was used for dispensing cells and applying test compounds. Nav late currents were evoked by the application of 300 nM ATX-II. INaL was evoked by depolarizing pulses to 0 mV for 200 ms from a non-inactivating holding potential (e.g., −120 mV) at a frequency of 0.1 Hz. INaL amplitude and stability were determined by analyzing the mean current amplitude over the final 20 ms of the test pulse. […] Percent steady-state inhibition of INaL was calculated as: [(INaL_compound)/(INaL_control)]*100, where INaL_compound and INaL_control represent INaL recorded in the presence or absence of compound, respectively.

T1 sequence (Q9UQD0 whole entry): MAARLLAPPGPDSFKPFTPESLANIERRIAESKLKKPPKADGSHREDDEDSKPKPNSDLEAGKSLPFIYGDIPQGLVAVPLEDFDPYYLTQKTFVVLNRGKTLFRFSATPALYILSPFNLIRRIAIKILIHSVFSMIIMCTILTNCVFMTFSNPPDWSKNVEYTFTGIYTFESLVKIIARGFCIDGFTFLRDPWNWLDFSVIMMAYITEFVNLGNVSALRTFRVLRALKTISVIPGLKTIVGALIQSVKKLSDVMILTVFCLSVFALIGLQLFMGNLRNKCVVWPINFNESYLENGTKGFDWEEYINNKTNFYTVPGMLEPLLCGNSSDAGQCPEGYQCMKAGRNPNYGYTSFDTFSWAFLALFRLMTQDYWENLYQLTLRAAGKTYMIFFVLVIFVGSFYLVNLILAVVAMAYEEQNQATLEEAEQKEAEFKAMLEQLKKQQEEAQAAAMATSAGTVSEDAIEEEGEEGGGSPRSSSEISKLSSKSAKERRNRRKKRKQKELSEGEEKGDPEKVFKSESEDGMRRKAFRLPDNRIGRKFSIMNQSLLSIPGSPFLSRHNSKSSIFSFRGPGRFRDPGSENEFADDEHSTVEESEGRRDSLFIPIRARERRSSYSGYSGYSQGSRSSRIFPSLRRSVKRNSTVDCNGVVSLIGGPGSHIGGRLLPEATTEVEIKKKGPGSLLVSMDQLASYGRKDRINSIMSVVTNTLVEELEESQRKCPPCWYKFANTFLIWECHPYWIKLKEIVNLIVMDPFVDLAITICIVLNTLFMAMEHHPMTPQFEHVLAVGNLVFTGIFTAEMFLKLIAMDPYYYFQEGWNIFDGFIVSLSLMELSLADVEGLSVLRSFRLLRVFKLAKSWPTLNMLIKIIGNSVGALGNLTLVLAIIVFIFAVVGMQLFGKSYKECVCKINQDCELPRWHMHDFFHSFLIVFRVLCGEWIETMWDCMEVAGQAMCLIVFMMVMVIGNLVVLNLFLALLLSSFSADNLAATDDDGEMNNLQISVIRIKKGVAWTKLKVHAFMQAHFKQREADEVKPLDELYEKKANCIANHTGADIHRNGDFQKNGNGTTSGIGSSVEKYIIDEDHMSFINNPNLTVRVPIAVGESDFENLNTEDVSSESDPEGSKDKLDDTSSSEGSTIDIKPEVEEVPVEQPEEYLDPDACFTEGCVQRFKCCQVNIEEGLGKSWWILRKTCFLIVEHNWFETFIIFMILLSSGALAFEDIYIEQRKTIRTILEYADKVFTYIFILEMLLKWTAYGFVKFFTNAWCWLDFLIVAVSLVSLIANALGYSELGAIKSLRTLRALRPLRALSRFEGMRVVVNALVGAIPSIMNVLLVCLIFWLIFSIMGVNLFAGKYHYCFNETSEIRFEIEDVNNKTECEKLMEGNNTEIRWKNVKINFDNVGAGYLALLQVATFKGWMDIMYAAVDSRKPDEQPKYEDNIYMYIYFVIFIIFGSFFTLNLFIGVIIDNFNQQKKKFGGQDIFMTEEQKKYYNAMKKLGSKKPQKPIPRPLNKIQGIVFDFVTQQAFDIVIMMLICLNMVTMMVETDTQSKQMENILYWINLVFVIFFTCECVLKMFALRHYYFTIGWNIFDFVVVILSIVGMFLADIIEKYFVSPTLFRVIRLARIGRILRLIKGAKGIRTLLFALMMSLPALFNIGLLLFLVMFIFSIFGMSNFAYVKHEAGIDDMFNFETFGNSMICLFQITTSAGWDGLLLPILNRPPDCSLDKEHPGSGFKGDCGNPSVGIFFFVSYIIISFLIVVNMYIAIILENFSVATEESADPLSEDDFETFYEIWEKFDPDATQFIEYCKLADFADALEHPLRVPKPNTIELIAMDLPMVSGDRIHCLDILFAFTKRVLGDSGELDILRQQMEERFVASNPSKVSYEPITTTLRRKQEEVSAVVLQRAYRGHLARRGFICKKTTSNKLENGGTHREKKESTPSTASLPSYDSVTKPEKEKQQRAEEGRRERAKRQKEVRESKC

SMILES | inhibition at 1 µM
CNC(=O)Cn1c(=O)oc2ccc(-c3ccc(OC(F)(F)F)cc3)cc21 [Compound 41] | < 30%
NC(=O)Cn1c(=O)oc2ccc(-c3ccc(OC(F)(F)F)cc3)cc21 [Compound 42] | < 30%
Cn1c(=O)oc2ncc(-c3ccc(OC(F)(F)F)cc3)cc21 [Compound 43] | < 30%
CC(C(=O)N1CCCC1)n1c(=O)oc2ccc(-c3ccc(OC(F)(F)F)cc3)cc21 (stereo not drawn) [Compound 45] | < 30%
O=c1oc2ncc(-c3ccc(OC(F)(F)F)cc3)cc2n1Cc1ncccn1 [Compound 49] | < 30%
O=c1oc2ccc(-c3ccc(OC(F)(F)F)cc3)cc2n1Cc1ncccn1 [Compound 50] | 30 to 70%
Cc1nnc(Cn2c(=O)oc3ccc(-c4ccc(OC(F)(F)F)cc4)cc32)o1 [Compound 51] | 30 to 70%
O=c1oc2ccc(-c3ccc(OC(F)(F)F)cc3)cc2n1CC1CCOCC1 [Compound 56] | > 70%
O=c1oc2ccc(-c3ccc(OC(F)(F)F)cc3)cc2n1CC1CCCCO1 (stereo not drawn) [Compound 57] | > 70%
O=c1oc2ccc(-c3ccc(OC(F)(F)F)cc3)cc2n1CC1CCOC1 (stereo not drawn) [Compound 68] | > 70%
CCn1c(=O)oc2ccc(-c3cnc(OCC(F)(F)F)c(F)c3)nc21 [Compound 71] | < 30%
O=c1oc2ccc(-c3ccc(OC(F)(F)F)cc3)cc2n1CC1CCCOC1 (stereo not drawn) [Compound 72] | > 70%
Cn1c(=O)oc2ccc(-c3ccc(OC(F)(F)F)cc3)nc21 [Compound 75] | > 70%
CCn1c(=O)oc2ccc(-c3ccc(OC(F)(F)F)cc3)nc21 [Compound 76] | > 70%
CC(C)n1c(=O)oc2ccc(-c3ccc(OC(F)(F)F)cc3)nc21 [Compound 78] | > 70%
O=C(Cn1c(=O)oc2ccc(-c3ccc(OC(F)(F)F)cc3)nc21)N1CCCC1 [Compound 79] | 30 to 70%
CN(CC(F)(F)F)C(=O)Cn1c(=O)oc2ccc(-c3ccc(OC(F)(F)F)cc3)cc21 [Compound 80] | 30 to 70%
O=c1oc2ccc(-c3ccc(OC(F)(F)F)cc3)cc2n1Cc1cncnc1 [Compound 84] | > 70%
CCN(C)C(=O)Cn1c(=O)oc2ccc(-c3ccc(OC(F)(F)F)cc3)cc21 [Compound 85] | 30 to 70%
O=c1oc2ccc(-c3ccc(OC(F)(F)F)cc3)nc2n1CC(F)F [Compound 86] | > 70%
O=c1oc2ccc(-c3ccc(OC(F)(F)F)cc3)nc2n1CCc1ncccn1 [Compound 87] | 30 to 70%
CC(O)CCn1c(=O)oc2ccc(-c3ccc(OC(F)(F)F)cc3)nc21 (stereo not drawn) [Compound 89] | > 70%
O=c1oc2ccc(-c3ccc(OC(F)(F)F)cc3)nc2n1CCCO [Compound 90] | 30 to 70%
[2H]C([2H])([2H])C([2H])([2H])n1c(=O)oc2ccc(-c3ccc(OC(F)(F)F)cc3)nc21 [Compound 91] | 30 to 70%

SMILES | inhibition at 1 µM
O=c1oc2ncc(-c3ccc(OC(F)(F)F)cc3)cc2n1CCc1ncccn1 [Compound 92] | < 30%
[2H]C([2H])([2H])n1c(=O)oc2ccc(-c3ccc(OC(F)(F)F)cc3)nc21 [Compound 93] | > 70%
CCn1c(=O)oc2ccc(-c3cnc(OCC(F)(F)F)c(F)c3)cc21 [Compound 96] | 30 to 70%
C[C@@H](O)CCn1c(=O)oc2ccc(-c3ccc(OC(F)(F)F)cc3)cc21 [Compound 97] | > 70%
C[C@H](O)CCn1c(=O)oc2ccc(-c3ccc(OC(F)(F)F)cc3)cc21 [Compound 98] | 30 to 70%
O=c1oc2ccc(-c3ccc(OC(F)(F)F)cc3)nc2n1CC1CCOCC1 [Compound 101] | > 70%
O=c1oc2ccc(-c3ccc(OC(F)(F)F)cc3)nc2n1CC1COC1 [Compound 102] | > 70%
O=c1oc2ccc(-c3ccc(OC(F)(F)F)cc3)nc2n1Cc1cncnc1 [Compound 103] | > 70%
O=c1oc2ccc(-c3ccc(OC(F)(F)F)cc3)cc2n1C[C@@H]1CCCO1 [Compound 104] | > 70%
O=c1oc2ccc(-c3ccc(OC(F)(F)F)cc3)cc2n1C[C@H]1CCCO1 [Compound 105] | > 70%
CC(=O)N1CCC[C@@H]1Cn1c(=O)oc2ccc(-c3ccc(OC(F)(F)F)cc3)cc21 [Compound 109] | > 70%
CC(=O)N1CCC[C@H]1Cn1c(=O)oc2ccc(-c3ccc(OC(F)(F)F)cc3)cc21 [Compound 111] | 30 to 70%
CS(=O)(=O)N1CCC[C@H]1Cn1c(=O)oc2ccc(-c3ccc(OC(F)(F)F)cc3)cc21 [Compound 113] | 30 to 70%
O=C(Cn1c(=O)oc2ccc(-c3ccc(OC(F)(F)F)cc3)cc21)N1CC[C@@H](O)C1 [Compound 114] | < 30%
O=C(Cn1c(=O)oc2ccc(-c3ccc(OC(F)(F)F)cc3)cc21)N1CC[C@H](O)C1 [Compound 115] | < 30%
O=c1oc2ccc(-c3ccc(OC(F)(F)F)cc3)cc2n1CCc1cncnc1 [Compound 117] | > 70%
CS(=O)(=O)N1CCC[C@@H]1Cn1c(=O)oc2ccc(-c3ccc(OC(F)(F)F)cc3)cc21 [Compound 118] | < 30%
O=C(Cn1c(=O)oc2ccc(-c3ccc(OC(F)(F)F)cc3)nc21)N1CCCCC1 [Compound 119] | > 70%
O=c1oc2ccc(-c3ccc(OC(F)(F)F)cc3)cc2n1CCc1cnccn1 [Compound 120] | > 70%
Cc1cc(OC(F)(F)F)ccc1-c1ccc2oc(=O)n(CCc3ncccn3)c2n1 [Compound 121] | 30 to 70%
O=c1oc2ccc(-c3cnc(OCC(F)(F)F)c(F)c3)nc2n1CCc1ncccn1 [Compound 122] | < 30%
O=c1oc2ccc(-c3ccc(OC(F)(F)F)cc3)nc2n1CCc1cnccn1 [Compound 123] | > 70%
O=c1oc2ccc(-c3ccc(OC(F)(F)F)cc3)nc2n1CCc1cncnc1 [Compound 124] | > 70%
CO[C@H]1CCN(C(=O)Cn2c(=O)oc3ccc(-c4ccc(OC(F)(F)F)cc4)cc32)C1 [Compound 125] | < 30%

SMILES | inhibition at 1 µM
CO[C@@H]1CCN(C(=O)Cn2c(=O)oc3ccc(-c4ccc(OC(F)(F)F)cc4)cc32)C1 [Compound 126] | 30 to 70%
O=c1oc2ccc(-c3ccc(OC(F)(F)F)cc3)cc2n1Cc1cnccn1 [Compound 131] | > 70%
O=c1oc2ccc(-c3ccc(OC(F)(F)F)cc3)cc2n1Cc1ccncn1 [Compound 132] | > 70%
C[C@@H]1CCCN1C(=O)Cn1c(=O)oc2ccc(-c3ccc(OC(F)(F)F)cc3)nc21 [Compound 134] | > 70%
O=c1oc2ccc(-c3ccc(OC(F)F)cc3)nc2n1CCc1ncccn1 [Compound 136] | < 30%
O=C(Cn1c(=O)oc2ccc(-c3cnc(OCC(F)(F)F)c(F)c3)nc21)N1CCCC1 [Compound 137] | < 30%
O=c1oc2ccc(-c3ccc(OC(F)(F)F)cc3)nc2n1Cc1ccncn1 [Compound 141] | 30 to 70%
O=C1CCCN1CCn1c(=O)oc2ccc(-c3ccc(OC(F)(F)F)cc3)nc21 [Compound 142] | < 30%
O=c1oc2ccc(-c3ccc(OC(F)(F)F)cc3)nc2n1Cc1cnccn1 [Compound 143] | > 70%
Cc1cc(OC(F)(F)F)ccc1-c1ccc2oc(=O)n(CC(=O)N3CCCC3)c2n1 [Compound 144] | < 30%
O=c1oc2ccc(-c3ccc(OC(F)(F)F)cc3)nc2n1CCc1ccncn1 [Compound 146] | > 70%
O=c1oc2ccc(-c3ccc(OC(F)(F)F)cc3)cc2n1CCc1ccncn1 [Compound 147] | > 70%
O=C(Cn1c(=O)oc2ccc(-c3ccc(OC(F)F)cc3)cc21)N1CCCC1 [Compound 148] | < 30%
Cn1cc(Cn2c(=O)oc3ccc(-c4ccc(OC(F)(F)F)cc4)nc32)cn1 [Compound 151] | > 70%
Cc1noc(C)c1Cn1c(=O)oc2ccc(-c3ccc(OC(F)(F)F)cc3)nc21 [Compound 152] | < 30%
Cc1nnc(Cn2c(=O)oc3ccc(-c4ccc(OC(F)(F)F)cc4)nc32)o1 [Compound 153] | 30 to 70%
Cc1oncc1Cn1c(=O)oc2ccc(-c3ccc(OC(F)(F)F)cc3)nc21 [Compound 154] | > 70%
Cc1nnc(Cn2c(=O)oc3ccc(-c4ccc(OC(F)(F)F)cc4)nc32)s1 [Compound 155] | > 70%
Cc1cc(Cn2c(=O)oc3ccc(-c4ccc(OC(F)(F)F)cc4)nc32)no1 [Compound 156] | > 70%
Cn1cnc(Cn2c(=O)oc3ccc(-c4ccc(OC(F)(F)F)cc4)nc32)n1 [Compound 157] | 30 to 70%
Cn1nccc1Cn1c(=O)oc2ccc(-c3ccc(OC(F)(F)F)cc3)nc21 [Compound 158] | 30 to 70%
Cc1nc(Cn2c(=O)oc3ccc(-c4ccc(OC(F)(F)F)cc4)nc32)co1 [Compound 159] | > 70%
Cc1cc(Cn2c(=O)oc3ccc(-c4ccc(OC(F)(F)F)cc4)nc32)on1 [Compound 160] | > 70%
Cc1noc(Cn2c(=O)oc3ccc(-c4ccc(OC(F)(F)F)cc4)nc32)n1 [Compound 161] | > 70%
